# US11584765B2 (priority 2017, dated 2023)
# Structures can show the parent of a compound that is named as a salt.
# Test system: C57BL/6 mice
# Assay: animal or person
# Format: in vivo
# Settings: Mus musculus, sc, 0.5 h, s.c. administration, 30 min, 55° C. water, read-out: ED50 (mg/kg) at 30 min on C57BL/6 mice in Warm-water Tail-flick Test
row,Compound,ED50
1,"Cc1cncc(CN2CCC(CCc3ccccc3)(C3CCCO3)C2)c1 (stereo not shown) [Compound 257, 3-methyl-5-((3-phenethyl-3-(tetrahydrofuran-2-yl)pyrrolidin-1-yl)methyl)pyridine]",< 10 mg/kg
2,"Cc1ccncc1CN1CCC(CCc2ccccc2)(C2CCCO2)C1 (stereo not shown) [Compound 262, 4-methyl-3-((3-phenethyl-3-(tetrahydrofuran-2-yl)pyrrolidin-1-yl)methyl)pyridine]",> 10 mg/kg
3,"Cc1ncccc1CN1CCC(CCc2ccccc2)(C2CCCO2)C1 (stereo not shown) [Compound 263, 2-methyl-3-((3-phenethyl-3-(tetrahydrofuran-2-yl)pyrrolidin-1-yl)methyl)pyridine]",< 10 mg/kg
4,"Cc1ccc(CN2CCC(CCc3ccccc3)(C3CCCO3)C2)cn1 (stereo not shown) [Compound 264, 2-methyl-5-((3-phenethyl-3-(tetrahydrofuran-2-yl)pyrrolidin-1-yl)methyl)pyridine]",< 10 mg/kg
5,"c1ccc(CCC2(C3CCCO3)CCN(Cc3cnn(-c4cccnc4)c3)C2)cc1 (stereo not shown) [Compound 265, 3-(4-((3-phenethyl-3-(tetrahydrofuran-2-yl)pyrrolidin-1-yl)methyl)-1H-pyrazol-1-yl)pyridine]",> 10 mg/kg
6,"CCOCC1(CCc2ccc(C)s2)CCN(Cc2cnn(C)c2)CC1 [Compound 266, 4-(ethoxymethyl)-1-((1-methyl-1H-pyrazol-4-yl)methyl)-4-(2-(5-methylthiophen-2-yl)ethyl)piperidine]",> 10 mg/kg
7,"CCOCC1(CCc2cc(C)cs2)CCN(Cc2cnn(C)c2)CC1 [Compound 267, 4-(ethoxymethyl)-1-((1-methyl-1H-pyrazol-4-yl)methyl)-4-(2-(4-methylthiophen-2-yl)ethyl)piperidine]",< 10 mg/kg
8,"CCOCC1(CCc2sccc2C)CCN(Cc2cnn(C)c2)CC1 [Compound 268, 4-(ethoxymethyl)-1-((1-methyl-1H-pyrazol-4-yl)methyl)-4-(2-(3-methylthiophen-2-yl)ethyl)piperidine]",< 10 mg/kg
9,CCOC[C@@]1(CCc2ccccc2)CCN(Cc2cccnc2)C1 [Compound 269],< 10 mg/kg
10,"CCOCC1(CCc2cccs2)CCN(Cc2cnn(C(C)C)c2)CC1 [Compound 270, 4-(ethoxymethyl)-1-((1-isopropyl-1H-pyrazol-4-yl)methyl)-4-(2-(thiophen-2-yl)ethyl)piperidine HCl]",> 10 mg/kg
11,"CCOCC1(CCc2cccs2)CCN(Cc2cnn(Cc3ccccc3)c2)CC1 [Compound 271, 1-((1-benzyl-1H-pyrazol-4-yl)methyl)-4-(ethoxymethyl)-4-(2-(thiophen-2-yl)ethyl)piperidine]",> 10 mg/kg
12,"C1=CC(C2(CCc3ccsc3)CCN(Cc3cccnc3)C2)OC1 (stereo not shown) [Compound 272, 3-((3-(2,5-dihydrofuran-2-yl)-3-(2-(thiophen-yl)ethyl)pyrrolidin-1-yl)methyl)pyridine]",< 10 mg/kg
13,"Cc1ccc(CN2CCC(CCc3ccccc3)(C3CCCO3)C2)c(C)n1 (stereo not shown) [Compound 273, 2,6-dimethyl-3-((3-phenethyl-3-(tetrahydrofuran-2-yl)pyrrolidin-1-yl)methyl)pyridine]",< 10 mg/kg
14,"COc1ccc(CN2CCC(CCc3ccccc3)(C3CCCO3)C2)cn1 (stereo not shown) [Compound 274, 2-methoxy-5-((3-phenethyl-3-(tetrahydrofuran-2-yl)pyrrolidin-1-yl)methyl)pyridine]",> 10 mg/kg
15,"CCOC[C@@]1(CCc2cccs2)CCN(Cc2cccnc2)C1 [Compound 275, (S)-3-((3-(ethoxymethyl)-3-(2-(thiophen-2-yl)ethyl)pyrrolidin-1-yl)methyl)pyridine]",< 10 mg/kg
16,"CCOCC1(CCc2ccccc2)CCN(Cc2ccc(C)nc2)C1 (stereo not shown) [Compound 276, 5-((3-(ethoxymethyl)-3-phenethylpyrrolidin-1-yl)methyl)-2-methylpyridine]",< 10 mg/kg
17,"CCOCC1(CCc2ccsc2)CCN(Cc2ccc(C)nc2)C1 (stereo not drawn) [Compound 277, 5-((3-(ethoxymethyl)-3-(2-(thiophen-3-yl)ethyl)pyrrolidin-l-yl)methyl)-2-methylpyridine]",< 10 mg/kg
18,"CCOCC1(CCc2ccsc2C)CCN(Cc2cnn(C)c2)CC1 [Compound 278, 4-(ethoxymethyl)-1-((1-methyl-1H-pyrazol-4-yl)methyl)-4-(2-(2-methylthiophen-3-yl)ethyl)piperidine]",< 10 mg/kg
19,"CCOCC1(CCc2csc(C)c2)CCN(Cc2cnn(C)c2)CC1 [Compound 279, 4-(ethoxymethyl)-1-((1-methyl-1H-pyrazol-4-yl)methyl)-4-(2-(5-methylthiophen-3-yl)ethyl)piperidine]",> 10 mg/kg
20,"CCOCC1(CCc2cscc2C)CCN(Cc2cnn(C)c2)CC1 [Compound 280, 4-(ethoxymethyl)-1-((1-methyl-1H-pyrazol-4-yl)methyl)-4-(2-(4-methylthiophen-3-yl)ethyl)piperidine]",< 10 mg/kg
21,"CCOCC1(CCc2cc(C)sc2C)CCN(Cc2cnn(C)c2)CC1 [Compound 281, 4-(2-(2,5-dimethylthiophen-3-yl)ethyl)-4-(ethoxymethyl)-1-((1-methyl-1H-pyrazol-4-yl)methyl)piperidine]",> 10 mg/kg
22,"CCOCC1(CCc2c(C)csc2C)CCN(Cc2cnn(C)c2)CC1 [Compound 282, 4-(2-(2,4-dimethylthiophen-3-yl)ethyl)-4-(ethoxymethyl)-1-((1-methyl-1H-pyrazol-4-yl)methyl)piperidine]",> 10 mg/kg

row,Compound,ED50
1,"CCOCC1(CCc2sccc2C)CCN(Cc2cccnc2)C1 (stereo not shown) [Compound 283, 3-((3-(ethoxymethyl)-3-(2-(3-methylthiophen-2-yl)ethyl)pyrrolidin-1-yl)methyl)pyridine]",< 10 mg/kg
2,"CCOCC1(CCc2cc(C)cs2)CCN(Cc2cccnc2)C1 (stereo not shown) [Compound 284, 3-((3-(ethoxymethyl)-3-(2-(4-methylthiophen-2-yl)ethyl)pyrrolidin-1-yl)methyl)pyridine]",< 10 mg/kg
3,"CCOCC1(CCc2ccc(C)s2)CCN(Cc2cccnc2)C1 (stereo not shown) [Compound 285, 3-((3-(ethoxymethyl)-3-(2-(5-methylthiophen-2-yl)ethyl)pyrrolidin-1-yl)methyl)pyridine]",> 10 mg/kg
4,"CCOCC1(CCc2ccsc2C)CCN(Cc2cccnc2)C1 (stereo not shown) [Compound 286, 3-((3-(ethoxymethyl)-3-(2-(2-methylthiophen-yl)ethyl)pyrrolidin-1-yl)methyl)pyridine]",< 10 mg/kg
5,"CCOCC1(CCc2csc(C)c2)CCN(Cc2cccnc2)C1 (stereo not shown) [Compound 287, 3-((3-(ethoxymethyl)-3-(2-(5-methylthiophen-yl)ethyl)pyrrolidin-1-yl)methyl)pyridine]",< 10 mg/kg
6,"CCOCC1(CCc2cscc2C)CCN(Cc2cccnc2)C1 (stereo not shown) [Compound 288, 3-((3-(ethoxymethyl)-3-(2-(4-methylthiophen-yl)ethyl)pyrrolidin-1-yl)methyl)pyridine]",< 10 mg/kg
7,"CCOCC1(CCc2ccc(Cl)cc2)CCN(Cc2cccnc2)C1 (stereo not shown) [Compound 289, 3-((3-(4-chlorophenethyl)-3-(ethoxy-methyl)pyrrolidin-1-yl)methyl)pyridine]",> 10 mg/kg
8,"CCOCC1(CCc2ccc(F)cc2)CCN(Cc2cccnc2)C1 (stereo not shown) [Compound 290, 3-((3-(ethoxy-methyl)-3-(4-fluoro-phenethyl)pyrrolidin-1-yl)methyl)pyridine]",< 10 mg/kg
9,"CCOCC1(CCc2ccc(C)cc2)CCN(Cc2cccnc2)C1 (stereo not shown) [Compound 291, 3-((3-(ethoxymethyl)-3-(4-methyl-phenethyl)pyrrolidin-1-yl)methyl)pyridine]",> 10 mg/kg
10,"CCOCC1(CCc2ccc(OC)cc2)CCN(Cc2cccnc2)C1 (stereo not shown) [Compound 292, 3-((3-(ethoxymethyl)-3-(4-methoxy-phenethyl)pyrrolidin-1-yl)methyl)pyridine]",> 10 mg/kg
11,"C1=CC(C2(CCc3cccs3)CCN(Cc3cccnc3)CC2)OC1 (stereo not shown) [Compound 293, 3-((4-(2,5-dihydrofuran-2-yl)-4-(2-(thiophen-2-yl)ethyl)piperidin-1-yl)methyl)pyridine]",> 10 mg/kg
12,"CCOCC1(CCc2ccccc2)CCN(C(C)c2ccc(C)nc2)C1 (stereo not shown) [Compound 294, 5-(1-(3-(ethoxymethyl)-3-phenethyl-pyrrolidin-1-yl)ethyl)-2-methylpyridine]",< 10 mg/kg
13,"CCOCC1(CCc2ccc(F)cc2)CCN(C(C)c2ccc(C)nc2)C1 (stereo not shown) [Compound 295, 5-(1-(3-(ethoxymethyl)-3-(4-fluoro-phenethyl)pyrrolidin-1-yl)ethyl)-2-methylpyridine]",< 10 mg/kg
14,"CCOCC1(CCc2ccc(F)cc2)CCN(Cc2ccc(C)nc2)C1 (stereo not shown) [Compound 296, 5-((3-(ethoxymethyl)-3-(4-fluoro-phenethyl)pyrrolidin-1-yl)methyl)-2-methylpyridine]",< 10 mg/kg
15,"CCOCC1(CCc2cc(C)cs2)CCN(Cc2ccc(C)nc2)C1 (stereo not shown) [Compound 297, 5-((3-(ethoxymethyl)-3-(2-(4-methylthiophen-2-yl)ethyl)pyrrolidin-1-yl)methyl)-2-methylpyridine]",< 10 mg/kg
16,"CCOCC1(CCc2ccccc2)CCN(C(CC)c2ccc(C)nc2)C1 (stereo not shown) [Compound 298, 5-(1-(3-(ethoxymethyl)-3-phenethylpyrrolidin-1-yl)propyl)-2-methylpyridine]",< 10 mg/kg
17,"CCOCC1(CCc2cc(C)cs2)CCN(Cc2ccc(C)nc2)CC1 [Compound 299, 5-((4-(ethoxymethyl)-4-(2-(4-methylthiophen-2-yl)ethyl)piperidin-1-yl)methyl)-2-methylpyridine]",< 10 mg/kg
18,"CCOCC1(CCc2ccc(F)s2)CCN(Cc2ccc(C)nc2)C1 (stereo not shown) [Compound 300, 5-((3-(ethoxymethyl)-3-(2-(5-fluorothiophen-2-yl)ethyl)pyrrolidin-1-yl)methyl)-2-methylpyridine]",< 10 mg/kg
19,"CCOCC1(CCc2cc3ccccc3s2)CCN(Cc2ccc(C)nc2)C1 (stereo not shown) [Compound 301, 5-((3-(2-(benzo[b]thiophen-2-yl)ethyl)-3-(ethoxy-methyl)pyrrolidin-1-yl)methyl)-2-methylpyridine]",> 10 mg/kg
20,"CCOCC1(CCc2csc3ccccc23)CCN(Cc2ccc(C)nc2)C1 (stereo not shown) [Compound 302, 5-((3-(2-(benzo[b]thiophen-3-yl)ethyl)-3-(ethoxy-methyl)pyrrolidin-1-yl)methyl)-2-methylpyridine]",< 10 mg/kg
21,"CCOC[C@@]1(CCc2ccccc2)CCN(C(C)c2ccc(C)nc2)C1.Cl (stereo partly drawn) [Compound 303, 5-(1-((S)-3-(ethoxymethyl)-3-phenethylpyrrolidin-1-yl)ethyl)-2-methylpyridine HCl]",< 10 mg/kg
